Experiments:
[1] = tested on: MA-10 mouse Leydig tumor cells; assay: MTT cell viability, MA-10 cells; format: cell-based
Protocol: Cell viability at the end of the incubation protocol described above was assessed using the mitochondrial integrity 3-(4,5-dimethylthiazol-2-yl)-2,5-diphenyl tetrazolium bromide (MTT) assay (Trevigen, Gaithersburg, Md.). Briefly, 10 l of the MTT solution were added to the cells in 100 l medium. After an incubation period of 4 hours, 100 l of detergent were added and cells were incubated overnight at 37° C. Formazan blue formation was quantified at 600 nm and 690 nm using the Victor quantitative detection spectrophotometer (EGG-Wallac, Gaithersburg, Md.) and the results expressed as (OD600-OD690).

HMG-CoA reductase = molecular target: T1, HMG-CoA reductase (Mus musculus, UniProt Q01237); assay: Direct effect on HMG-CoA reductase activity in sonicated Y1 cell homogenates; format: biochemical; details: control 10.1±0.9
T1 construct: endogenous in cells; host or cells: Y1 mouse adrenal tumor cells (Brij 96 extract; sonicated homogenate for the direct test)
T1 sequence (Q01237 1-887): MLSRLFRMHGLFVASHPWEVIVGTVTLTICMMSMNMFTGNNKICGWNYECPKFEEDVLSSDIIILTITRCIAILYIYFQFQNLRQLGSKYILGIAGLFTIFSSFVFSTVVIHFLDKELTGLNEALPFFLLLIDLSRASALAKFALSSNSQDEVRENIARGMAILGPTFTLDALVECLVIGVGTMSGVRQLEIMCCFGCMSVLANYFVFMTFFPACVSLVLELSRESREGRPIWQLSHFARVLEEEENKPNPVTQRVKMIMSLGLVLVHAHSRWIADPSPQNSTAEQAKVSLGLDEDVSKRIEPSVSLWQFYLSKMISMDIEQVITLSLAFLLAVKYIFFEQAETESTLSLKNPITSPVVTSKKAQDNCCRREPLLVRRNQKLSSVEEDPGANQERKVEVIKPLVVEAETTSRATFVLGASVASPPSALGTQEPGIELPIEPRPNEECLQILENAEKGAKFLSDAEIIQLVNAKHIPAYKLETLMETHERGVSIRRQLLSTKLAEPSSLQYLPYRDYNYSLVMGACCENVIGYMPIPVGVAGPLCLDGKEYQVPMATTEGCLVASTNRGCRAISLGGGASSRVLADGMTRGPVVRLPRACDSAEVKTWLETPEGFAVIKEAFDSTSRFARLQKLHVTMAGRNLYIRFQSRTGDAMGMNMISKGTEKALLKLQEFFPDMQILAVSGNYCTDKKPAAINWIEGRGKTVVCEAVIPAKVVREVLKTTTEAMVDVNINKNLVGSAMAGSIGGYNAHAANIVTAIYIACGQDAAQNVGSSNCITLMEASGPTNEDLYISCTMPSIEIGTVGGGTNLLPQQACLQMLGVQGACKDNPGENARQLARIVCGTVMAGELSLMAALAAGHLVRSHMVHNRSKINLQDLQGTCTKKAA
Protocol: Cells were washed twice with ice-cold PBS and incubated with ice-cold assay buffer (0.1M sucrose, 40 mM KH2PO4, 30 mM EDTA, 50 mM KCl, 5 mM DTT, 0.25% (v/v) of Brij 96, at pH 7.4) on ice for 20 minutes. After centrifugation for 3 minutes at 14000 g (4° C.) the supernatants were collected and used for HMG-CoA reductase activity assay. The total 150 l assay mixture contained 100-200 g protein and the NADPH-generating system (2.5 mM NADP, 20 mM glucose 6-phosphate and 20 U/ml glucose 6-phosphate dehydrogenase). The reaction was started by adding substrate (^14C-HMG-CoA, 0.1 Ci) and stopped after 45 minutes by adding 10-1 of HCl 6M. ^3H-mevalonolactone was also added to the samples as an extraction recovery marker. After an additional 30 minutes incubation time, to allow complete lactonization of the product, the mixture was centrifuged. The supernatant was applied to Bond-Elut NH2 column and eluted with 1 ml of toluene/acetone (3:1). The eluate was discarded and further 4 ml of toluene/acetone was applied to the column and collected in a scintillation vial for counting ^14C-mevalonate and 3H-mevalonolactone signals (Berkhout et al., 1990).
In separate experiments cells were disrupted by sonication and then treated with procaine. The direct effect of the treatment on HMG-CoA reductase activity in the homogenates was determined as described above.

PKA = assay: dbcAMP-stimulated PKA activity in Y1 cells (PepTag assay); format: cell-based, mouse; design: dose or concentration left out as unconfirmed
Protocol: Y1 cells were cultured in 6-well plates (2×10^5 cells per well) and treated as described above for steroid biosynthesis. At the end of the incubation, cells were washed twice with PBS and proteins were extracted using an extraction buffer (25 mM tris-HCl pH 7.4, 0.5 mM EDTA, 0.5 mM EGTA, 10 mM-mercaptoethanol, 0.5 mM PMSF, 1 g/ml leupeptin, and 1 g/ml aprotinin). After centrifugation at 18,500 g for 15 minutes, the supernatants were kept for PKA activity assay. Samples were processed using the PepTag assay for non-radioactive detection of PKA activity following the manufacturer's recommendations (Promega Corporation, Madison, Wis.).

HMG-CoA reductase mRNA = HMG-CoA reductase mRNA expression by Q-PCR in Y1 cells; format: cell-based, mouse; details: for dbcAMP-induced HMG-CoA reductase mRNA levels: Y1 cells, 24 hours pretreatment, dbcAMP 24 hours
Protocol: After treatment, cells were stimulated with 1 mM dbcAMP for 24 hours. At the end of the incubation, total cell RNA was extracted using. RNA STAT-60 (Tel-Test Inc, Friendswood, Tex.) according to the manufacturer's instructions. HMG-CoA reductase mRNA was quantified by Q-PCR using the ABI Prism 7700 sequence detection system (Perlin-Elmer/Applied Biosystems, Foster City, Calif.). RT reaction was performed using TaqMan® Reverse Transcription Reagents with 1 g total RNA and random hexamers as primers for each reaction according to the manufacturer's instructions. For quantifying mouse HMG-CoA reductase mRNA with Q-PCR, the primers were designed according to GenBank Accession Number BC 019782 using PE/AB Primer Express software, which is specifically designed for the selection of primers and probes. The forward primer was 5′-[…]-3′ (22 nucleotides) and reverse primer was 5′-[…]-3′ (23 nucleotides), respectively. The primers were synthesized by Bio-Synthesis Inc. (Lewisville, Tex.). Reactions were performed in a reaction mixture consisting of a 20 l volume solution containing 10 l SYBR® Green PCR Master Mix and 1 l primers mix (5 M each) with 2 l cDNA.

For CCN(CC)CCOC(=O)c1ccc(N)cc1 [procaine], the “cell viability (MTT assay)” value [1] was “did not affect”, the “HMG-CoA reductase activity in sonicated cells” value (shortened to “HMG-CoA reductase activity”) (HMG-CoA reductase; 1 μM procaine) was 9.9±0.01 pmol/min/mg protein and the “HMG-CoA reductase activity” value (HMG-CoA reductase; 10 μM procaine) was 10.3±0.6 pmol/min/mg protein. For the same compound, the “HMG-CoA reductase activity” value (HMG-CoA reductase; 100 μM procaine) was 10.1±0.1 pmol/min/mg protein, the “dbcAMP-stimulated PKA activity” value (PKA) was “did not affect” and the “dbcAMP-induced HMG-CoA reductase mRNA levels” value (HMG-CoA reductase mRNA) was “reduced in a dose-dependent manner”. For the same compound, the “dbcAMP-induced HMG-CoA reductase mRNA levels” value (HMG-CoA reductase mRNA; listed as Procaine) was “inhibited in a dose-dependent manner” and the “basal HMG-CoA mRNA levels” value (HMG-CoA reductase mRNA; no dbcAMP) was “without affecting”.

— patent US20060194815A1, “Methods and compositions for modulating serum cortisol levels” (priority 2003, published 2006)
